Legend:
[1] = system: rabbit corneal endothelial cells; test: In vitro scratch wound healing of cultured rabbit corneal endothelial cells; assay type: cell-based; details: for Wound healing index: angiogenin 2 μg/ml, mean ± SE
Method: A corneal endothelial tissue segment obtained from remaining corneal portions other than the central 8 mm corneal portion in cadaveric cornea donated for transplantation and a corneal endothelial tissue segment of a normal rabbit were cultured. Then, each of the corneal tissues was divided into 6 pieces and washed by shaking 6 times in a petri dish to which 7 ml of 5% penicillin/streptomycin (P/S) was added. Then, the washed tissues were each transferred to a 6-well dish such that the endothelial layer was facing down, and the tissues were semi-dried until the dishes were slightly drained. Next, the corneal endothelial cells of the rabbit cornea were cultured in a culture medium (EGM™-2BulletKit™, Lonza, Allendale, USA) containing human epidermal growth factor (hEGF), hydrocortisone, 5% fetal bovine serum (FBS), human […] (hFGF), insulin-like growth factor (IGF), ascorbic acid, gentamicin, and amphotericin-B (EGM™-2BulletKit™, Lonza, Allendale, USA), and the corneal endothelial cells of the human cornea were cultured in a culture medium (Opti-MEM®, Gibco®, New York, USA) supplemented with 8% FBS, calcium (CaCl2), chondroitinsulfate, ascorbic acid, multi-vitamin solution, gentamicin, anti-Pseudomonas aeruginosa antibiotic, pituitary extract, epidermal growth factor (EGF), and nerve growth factor (NGF), for about 5 to 7 days.
Experiments have been carried to identify angiogenin effects on migration and proliferation of the corneal endothelial cells. When the cultured rabbit corneal endothelial cells had about 80-90% confluency in three 6-well dishes, the central part of each well was scratched by a tip of a 200 μl pipette to make wounds. Then, each of the three 6-well dishes was replaced by a culture medium containing 1) 5% FBS (in the control group), 2) Y-27632 (10 μM), and 3) angiogenin (2 μg/ml). At every 0 hour, 12 hours, 24 hours, and 48 hours, digital images of the remaining wounded areas were obtained at 40× magnification of the optical microscope, and measured in pixels by using the Image J software. In addition, each of the three 6-well dishes containing the cultured corneal endothelial cells in the human was scratched in the same manner as described above to make wounds, and then, replaced by a culture medium containing 1) 5% FBS (in the control group), 2) Y-27632 (10 μM), and 3) angiogenin (5 μg/ml). At every 6 hours and 24 hours, the wounded areas were measured by using the Image J software. The ratio of initial wounded area versus recovered area was defined as wound healing index, which is calculated as shown below. Here, the initial wounded area was corrected to be equal before the calculation. Wound healing index(%)=(Initial wounded area−Remaining wounded area)/Initial wounded area

[2] = system: rabbit corneal endothelium; test: Corneal transparency grade by slit-lamp after trans-corneal freezing damage; assay type: in vivo; details: mean ± SE
Method: 30 eyeballs of 15 healthy white New Zealand rabbits weighing about 2.0 kg to about 3.0 kg without external opacification were anesthetized by intramuscular injection with 12.5 mg/kg of tiletamine/zolazepam (Zoletil®, VirbacLab, France) and 12.5 mg/kg of zylazine (Rompun®, BayerKorea, Korea). Afterwards, 0.5% povidone-iodine was used for disinfection of the whole range of experimental sight. Referring to FIG. 1, an 8 mm-diameter stainless steel rod as a probe was immersed in liquid nitrogen for 3 minutes, removed therefrom once the temperature of the liquid nitrogen reached −196° C., and brought into contact to the central cornea for 15 seconds. Then, each of the eyeballs was washed with 10 cc of 0.9% saline solution. In order to prevent the occurrence of corneal infection, the rabbit corneas were given instillation of Levofloxacin (Cravit®, Santen, Japan) three times a day for 3 days after the damage was induced.
3 groups consisting of 10 eyeballs given instillation of angiogenin (200 μg/mL), 7 eyeballs given Y-27632 (10 mM) inhibitor of Rho-associated coiled-coil kinase (ROCK) pathway, and 7 eyeballs as a control group given phosphate-buffered solution (PBS) were each subjected to 50 μl of instillation at a time, and more particularly, 6 times a day for the first 2 days, and then, 4 times a day for the following 2 days, starting immediately after inducing freeze-damages to the trans-corneal endothelium. That is, the instillation was performed 20 times in total for 4 days.
Then, the groups were subjected to the evaluation of corneal opacity and corneal edema by using a digital camera (VLUUNV100HD, Samsung, Suwon, Korea) to obtain images taken in a diagonal direction.
Experiments have been carried out to identify effects of angiogenin-induced PI3k-Akt signaling pathway in terms of recovering the corneal transparency after inducing damages to the corneal endothelium. After inducing freeze-damages to the corneal endothelium, 4 eyeballs out of 30 rabbit eyeballs in total were subjected to 50 μl of each of 200 μg/mL of angiogenin and 200 μM of PI3k-Akt pathway inhibitor, LY294002 instillation at a time every 3 minutes, and more particularly, 6 times a day for the first 2 days, and then, 4 times a day for the following one day. That is, the instillation was performed 16 times in total for 3 days.

[3] = system: human corneal endothelial cells; test: In vitro scratch wound healing of cultured human corneal endothelial cells; assay type: cell-based; details: for Wound healing index compared with the control group: 6 and 24 hours, angiogenin 5 μg/ml, Y-27632 10 μM
Method: A corneal endothelial tissue segment obtained from remaining corneal portions other than the central 8 mm corneal portion in cadaveric cornea donated for transplantation and a corneal endothelial tissue segment of a normal rabbit were cultured. Then, each of the corneal tissues was divided into 6 pieces and washed by shaking 6 times in a petri dish to which 7 ml of 5% penicillin/streptomycin (P/S) was added. Then, the washed tissues were each transferred to a 6-well dish such that the endothelial layer was facing down, and the tissues were semi-dried until the dishes were slightly drained. […]
Experiments have been carried to identify angiogenin effects on migration and proliferation of the corneal endothelial cells. […] At every 0 hour, 12 hours, 24 hours, and 48 hours, digital images of the remaining wounded areas were obtained at 40× magnification of the optical microscope, and measured in pixels by using the Image J software. […] At every 6 hours and 24 hours, the wounded areas were measured by using the Image J software. The ratio of initial wounded area versus recovered area was defined as wound healing index, which is calculated as shown below. […]
Experiments have been carried to identify optimal concentration of angiogenin to improve in vitro migration and proliferation improvement of the cultured human corneal endothelial cells. […] At every 0 hour, 12 hours, 24 hours, and 48 hours, the wounded areas were measured by using the Image J software. […]

[4] = 48 h after freeze damage, instillation 50 μl (angiogenin 200 μg/mL, Y-27632 10 mM), grade 0 transparent to +4.0 turbid (Table 1)
[5] = 72 h after freeze damage, instillation 50 μl (angiogenin 200 μg/mL, Y-27632 10 mM, LY294002 200 μM), grade 0 to +4.0 (Table 1)
[6] = 144 h after freeze damage, instillation 50 μl (angiogenin 200 μg/mL, Y-27632 10 mM), grade 0 to +4.0 (Table 1)
[7] = 192 h after freeze damage, instillation 50 μl (angiogenin 200 μg/mL, Y-27632 10 mM), grade 0 to +4.0 (Table 1)

Compound	Wound healing index compared with the control group ([1]; Y-27632 10 μM, 12, 24, 48 hours)	Grade of corneal transparency (by using slit-lamp biomicroscope) [2, 4]	Grade of corneal transparency (by using slit-lamp biomicroscope) [2, 5]	Grade of corneal transparency (by using slit-lamp biomicroscope) [2, 6]	Grade of corneal transparency (by using slit-lamp biomicroscope) [2, 7]	Wound healing index compared with the control group [3]	Wound healing index ([1]; 12 hours) [%]	Wound healing index ([1]; 24 hours) [%]	Wound healing index ([1]; 48 hours) [%]	Angiogenin concentration giving the highest wound healing index ([3]; 1, 2, 5 and 10 μg/ml tested, 0, 12, 24, 48 hours) [µg/mL]
C[C@@H](N)[C@H]1CC[C@H](C(=O)Nc2ccncc2)CC1 [Y-27632, reference compound]	did not show significant difference	4.00 ± 0	3.00 ± 0.41	1.38 ± 0.38	1.38 ± 0.38	high wound healing index	–	–	–	–
Angiogenin: 14.4-kDa single chain protein of 123 amino acids, secreted protein capable of inducing angiogenesis	–	4.00 ± 0	2.65 ± 0.37	1.29 ± 0.26	1.29 ± 0.26	high wound healing index	28.7±2.9	66.7±4.3	78.7±2.9	5

Source: patent US9050301B2, “Pharmaceutical composition for treatment of corneal endothelial wounds containing angiogenin” (Chung-Ang University Industry-Academy Cooperation Foundation, priority 2013, dated 2015)
